Laboratory results from patent US20220396818A1, “POLYNUCLEOTIDE SYNTHESIS METHOD, KIT AND SYSTEM” (Oxford Nanopore Technologies PLC, priority 2019, published 2022).

Test system: 3′-O-azidomethyl group on DNA model
Assay: Deprotection of 3′-O-azidomethyl group by TCEP, monitored by extension reaction
Conditions: 0.2 μM DNA model
Description: Deprotection step (FIG. 26a) was studied on DNA model bearing 3′-O-azidomethyl group that is introduced to DNA by incorporation of 3′-O-azidomethyl-dNTPs by Therminator IX DNA polymerase. Deprotection was carried out by tris(carboxyethyl)phosphine (TCEP) and monitored by extension reaction when mixture of all natural dNTPs is added to the solution of the purified deprotected DNA.
• 1. 2 μl of 10× Thermopol® buffer (20 mM Tris-HCl, 10 mM (NH4)2SO4, 10 mM KCl, 2 mM MgSO4, 0.1% Triton® X-100, pH 8.8, New England BioLabs) was mixed with 12.25 μl of sterile deionized water (ELGA VEOLIA) in 1.5 ml Eppendorf tube. • 2. 1 μl of 10 μM primer (10 pmol, 1 equiv) (SEQ ID NO: 39, FIG. 26i) and 1.5 μl of either 10 μM template-A/G/T/C (15 pmol, 1.5 equiv) (SEQ ID NOS: 40 to 43, FIG. 26i) were added to the reaction mixture. • 3. 3′-O-modified-dTTP/dCTP/dATP/dGTP (2 μl of 100 μM) and MnCl2 (1 μl of 40 mM) were added. • 4. 1.5 μl of Therminator IX DNA polymerase (15 U, New England BioLabs) was then added. • 5. The reaction was incubated for 5 minutes at 37° C. • 6. 4 μL of the sample was taken out and mixed with 0.5 ul of 5 mM dNTP mix and allowed to react for 10 minutes for control reaction. • 7. 40 μL of the 500 mM TCEP in 1M TRIS buffer pH 7.4 was added to the reaction mixture and allowed to react for 10 minutes at 37° C. • 8. […]

O=C(O)CCP(CCC(=O)O)CCC(=O)O [TCEP, tris(carboxyethyl)phosphine]
cleavage of 3′-O-azidomethyl group with high efficiency (50 mM TCEP): not sufficient | efficiency of cleavage of 3′-O-azidomethyl group (300 mM TCEP): 95%
